Measured values from US20200339625A1, “NOVEL RADIOMETAL-BINDING COMPOUNDS FOR DIAGNOSIS OR TREATMENT OF PROSTATE SPECIFIC MEMBRANE ANTIGEN-EXPRESSING CANCER” (PROVINCIAL HEALTH SERVICES AUTHORITY, priority 2017, published 2020).

Test system: mice bearing LNCaP xenografts
Test: Biodistribution of 177Lu-labeled compounds
Assay type: in vivo
Experimental: 1.17 SPECT/CT Imaging, Biodistribution and Endoradiotherapy Studies
SPECT/CT imaging and biodistribution were performed using NOD-scid IL2Rgammanu^null (NSG) male mice, and the endoradiotherapy study was conducted using NOD.Cg-Rag1^tm1MomII2rg^tm1WjI/SzJ (NRG) male mice. The mice were maintained and the experiments were conducted in according to the guidelines established by the Canadian Council on Animal Care and approved by Animal Ethics Committee of the University of British Columbia. Mice were anesthetized by inhalation with 2% isoflurane in oxygen, and implanted subcutaneously with 1×10^7 LNCaP cells posterior to the left shoulder. Mice were used for studies when the tumor reached 5-8 mm in diameter 5-6 weeks after inoculation.
For biodistribution studies, the mice were injected with ^177Ludabeled PSMA-617 or HTK01169 (2-4 MBq) as described above. At predetermined time points (1, 4, 24, 72, or 120 h post-injection), the mice were euthanized by CO2 inhalation. Blood was withdrawn immediately from the heart, and the organs/tissues of interest were collected. The collected organs/tissues were weighed and counted using an automated gamma counter. For the blocking study, mice were co-injected with ^177Lu-HTK01169 (2-4 MBq) and 50 nmol of the non-radioactive standard, and organs/tissues of interest were collected at 4 h post-injection.

Structure (SMILES): O=C([O-])CN1CCN(CC(=O)[O-])CCN(CC(=O)NCC2CCC(C(=O)N[C@@H](Cc3ccc4ccccc4c3)C(=O)NCCCC[C@H](NC(=O)N[C@@H](CCC(=O)O)C(=O)O)C(=O)O)CC2)CCN(CC(=O)[O-])CC1.[177Lu+3] (stereo partly shown) [^177Lu-PSMA-617, reference compound]
- tumor-to-background contrast ratios, trend (1-120 h): improved over time as well
- Adrenal glands uptake (1 h post-injection): 4.88±2.41 % ID/g
- Blood uptake (1 h post-injection): 0.68±0.23 % ID/g
- Bone uptake (1 h post-injection): 0.14 ± 0.06 % ID/g
- Brain uptake (1 h post-injection): 0.03 ± 0.01 % ID/g
- Fat uptake (1 h post-injection): 0.46 ± 0.18 % ID/g
- Heart uptake (1 h post-injection): 0.28 ± 0.10 % ID/g
- Intestine uptake (1 h post-injection): 0.26 ± 0.16 % ID/g
- Kidneys uptake (1 h post-injection): 97.2±19.4 % ID/g
- Liver uptake (1 h post-injection): 0.26 ± 0.15 % ID/g
- Lung uptake (1 h post-injection): 1.34±0.39 % ID/g
- Muscle uptake (1 h post-injection): 0.18 ± 0.06 % ID/g
- Pancreas uptake (1 h post-injection): 0.33 ± 0.18 % ID/g
- Seminal uptake (1 h post-injection): 0.14 ± 0.08 % ID/g
- Spleen uptake (1 h post-injection): 3.34±1.77 % ID/g
- Stomach uptake (1 h post-injection): 0.18 ± 0.14 % ID/g
- Testes uptake (1 h post-injection): 0.49 ± 0.22 % ID/g
- Tumor uptake (1 h post-injection): 15.1±5.58 % ID/g
- Tumor/blood ratio (1 h post-injection): 22.8 ± 6.85
- Tumor/kidney ratio (1 h post-injection): 0.15 ± 0.04
- Tumor/muscle ratio (1 h post-injection): 86.9 ± 26.6
- Adrenal glands uptake (4 h post-injection): 0.40 ± 0.18 % ID/g
- Blood uptake (4 h post-injection): 0.12 ± 0.18 % ID/g
- Bone uptake (4 h post-injection): 0.06 ± 0.03 % ID/g
- Brain uptake (4 h post-injection): 0.02 ± 0.00 % ID/g
- Fat uptake (4 h post-injection): 0.16 ± 0.11 % ID/g
- Heart uptake (4 h post-injection): 0.04 ± 0.02 % ID/g
- Intestine uptake (4 h post-injection): 0.07 ± 0.04 % ID/g
- Kidneys uptake (4 h post-injection): 26.6 ± 19.1 % ID/g
- Liver uptake (4 h post-injection): 0.08 ± 0.06 % ID/g
- Lung uptake (4 h post-injection): 0.16 ± 0.07 % ID/g
- Muscle uptake (4 h post-injection): 0.05 ± 0.03 % ID/g
- Pancreas uptake (4 h post-injection): 0.05 ± 0.01 % ID/g
- Seminal uptake (4 h post-injection): 0.02 ± 0.01 % ID/g
- Spleen uptake (4 h post-injection): 0.24 ± 0.14 % ID/g
- Stomach uptake (4 h post-injection): 0.04 ± 0.02 % ID/g
- Testes uptake (4 h post-injection): 0.06 ± 0.01 % ID/g
- Tumor uptake (4 h post-injection): 14.5 ± 1.83 % ID/g
- Tumor/blood ratio (4 h post-injection): 290 ± 175
- Tumor/kidney ratio (4 h post-injection): 0.79 ± 0.48
- Tumor/muscle ratio (4 h post-injection): 371 ± 171
- Adrenal glands uptake (24 h post-injection): 0.06 ± 0.03 % ID/g
- Blood uptake (24 h post-injection): 0.00 ± 0.00 % ID/g
- Bone uptake (24 h post-injection): 0.03 ± 0.02 % ID/g
- Brain uptake (24 h post-injection): 0.01 ± 0.00 % ID/g
- Fat uptake (24 h post-injection): 0.08 ± 0.03 % ID/g
- Heart uptake (24 h post-injection): 0.01 ± 0.00 % ID/g
- Intestine uptake (24 h post-injection): 0.02 ± 0.00 % ID/g
- Kidneys uptake (24 h post-injection): 0.58 ± 0.22 % ID/g
- Liver uptake (24 h post-injection): 0.03 ± 0.01 % ID/g
- Lung uptake (24 h post-injection): 0.03 ± 0.01 % ID/g
- Muscle uptake (24 h post-injection): 0.01 ± 0.00 % ID/g
- Pancreas uptake (24 h post-injection): 0.01 ± 0.00 % ID/g
- Seminal uptake (24 h post-injection): 0.01 ± 0.00 % ID/g
- Spleen uptake (24 h post-injection): 0.05 ± 0.01 % ID/g
- Stomach uptake (24 h post-injection): 0.04 ± 0.02 % ID/g
- Testes uptake (24 h post-injection): 0.02 ± 0.01 % ID/g
- Tumor uptake (24 h post-injection): 10.9 ± 3.30 % ID/g
- Tumor/blood ratio (24 h post-injection): 2293 ± 651
- Tumor/kidney ratio (24 h post-injection): 20.7 ± 8.39
- Tumor/muscle ratio (24 h post-injection): 1582 ± 353
- Adrenal glands uptake (72 h post-injection): 0.10 ± 0.06 % ID/g
- Blood uptake (72 h post-injection): 0.00 ± 0.00 % ID/g
- Bone uptake (72 h post-injection): 0.05 ± 0.02 % ID/g
- Brain uptake (72 h post-injection): 0.01 ± 0.00 % ID/g
- Fat uptake (72 h post-injection): 0.05 ± 0.02 % ID/g
- Heart uptake (72 h post-injection): 0.01 ± 0.01 % ID/g
- Intestine uptake (72 h post-injection): 0.01 ± 0.01 % ID/g
- Kidneys uptake (72 h post-injection): 0.22 ± 0.11 % ID/g
- Liver uptake (72 h post-injection): 0.02 ± 0.01 % ID/g
- Lung uptake (72 h post-injection): 0.02 ± 0.01 % ID/g
- Muscle uptake (72 h post-injection): 0.01 ± 0.00 % ID/g
- Pancreas uptake (72 h post-injection): 0.01 ± 0.01 % ID/g
- Seminal uptake (72 h post-injection): 0.01 ± 0.01 % ID/g
- Spleen uptake (72 h post-injection): 0.03 ± 0.02 % ID/g
- Stomach uptake (72 h post-injection): 0.03 ± 0.03 % ID/g
- Testes uptake (72 h post-injection): 0.01 ± 0.00 % ID/g
- Tumor uptake (72 h post-injection): 7.80 ± 3.69 % ID/g
- Tumor/blood ratio (72 h post-injection): 2206 ± 337
- Tumor/kidney ratio (72 h post-injection): 38.0 ± 13.4
- Tumor/muscle ratio (72 h post-injection): 1378 ± 335
- Adrenal glands uptake (120 h post-injection): 0.04 ± 0.02 % ID/g
- Blood uptake (120 h post-injection): 0.00 ± 0.00 % ID/g
- Bone uptake (120 h post-injection): 0.02 ± 0.01 % ID/g
- Brain uptake (120 h post-injection): 0.01 ± 0.00 % ID/g
- Fat uptake (120 h post-injection): 0.03 ± 0.01 % ID/g
- Heart uptake (120 h post-injection): 0.00 ± 0.00 % ID/g
- Intestine uptake (120 h post-injection): 0.03 ± 0.03 % ID/g
- Kidneys uptake (120 h post-injection): 0.08 ± 0.03 % ID/g
- Liver uptake (120 h post-injection): 0.01 ± 0.00 % ID/g
- Lung uptake (120 h post-injection): 0.01 ± 0.00 % ID/g
- Muscle uptake (120 h post-injection): 0.00 ± 0.00 % ID/g
- Pancreas uptake (120 h post-injection): 0.00 ± 0.00 % ID/g
- Seminal uptake (120 h post-injection): 0.00 ± 0.00 % ID/g
- Spleen uptake (120 h post-injection): 0.02 ± 0.01 % ID/g
- Stomach uptake (120 h post-injection): 0.05 ± 0.05 % ID/g
- Testes uptake (120 h post-injection): 0.01 ± 0.00 % ID/g
- Tumor uptake (120 h post-injection): 7.91±2.82 % ID/g
- Tumor/blood ratio (120 h post-injection): 4425 ± 1485
- Tumor/kidney ratio (120 h post-injection): 103 ± 75.9
- Tumor/muscle ratio (120 h post-injection): 4388 ± 4211
- blood clearance (qualitative) (mouse, in vivo): cleared rapidly from blood
- peaked tumor uptake (peak over 1-120 h): 15.1±5.58 % ID/g
